According to patent publication US20120046333A1, “Methods and Compositions of PI-3 Kinase Inhibitors for Treating Fibrosis” (Oncothyreon Incorporated, priority 2009, published 2012):
“Also recorded” adds a separate entry of the source.

Legend:
[1] = system: phosphorylated Akt (P-Akt) Ser 473; test: Western blot of TGFα-induced phosphorylation of Akt in lung homogenates; assay type: in vivo; conditions: 1 day of Dox, PX-866 pretreatment 3 mg/kg by gavage, vs vehicle-treated transgenic mice
Excerpt: (§1) CCSP-rtTA activator mice expressing the reverse tetracycline-responsive transactivator (rtTA) under control of the 2.3-kb rat Clara Cell Secretory Protein (CCSP), a.k.a. secretoglobin, family 1A, member 1 (Scgblal) gene promoter were mated to conditional doxycycline (Dox) regulated transgenic mice containing the human TGFα cDNA under the control of seven copies of the tetracycline operon ((TetO)7-cmv TGFα) plus a minimal CMV promoter. Single transgenic (CCSP-rtTA+/−) and bitransgenic CCSP-rtTA+/−/(TetO)7-cmv TGFα+/− mice were produced within the same litter by mating homozygous CCSP-rtTA+/+ mice to hemizygous (TetO)?-cmv TGFα+/− mice. All mice were derived from the FVB/NJ inbred strain. Mice were maintained in virus-free containment. […]
Western Blots: Western blot analysis was performed on lung homogenates as previously described. Blots were incubated with antibodies against total and phosphorylated Akt (Ser 473 and Thr 308, Cell Signaling Technology) and quantified using the volume integration function on a PhosphorImager software Imagequant 5.2 (Molecular Dynamics, Sunnyvale, Calif.).
PX-866 inhibits TGFα-Induced Phosphorylation of Akt: CCSP-rtTA/otet-TGFαmice were treated with 1 day of Dox to induce TGFα expression. Phosphorylated Akt (P-Akt) levels for Ser 473 as measured by Western blot analysis increased over 5-fold compared to Dox-treated control mice.

[2] = system: CCSP-rtTA/otet-TGFα transgenic mice; test: Prevention of TGFα-induced pulmonary fibrosis, PX-866 given at initiation of TGFα induction; assay type: in vivo; conditions: 4 weeks of Dox, PX-866 from initiation of TGFα induction
Excerpt: as §1, with “strain.” for “strain. Mice were maintained in virus-free containment.”
(§2) Lung Histology, Immunostaining and Total Lung Collagen: Lungs were inflation fixed as previously described. […] Total lung collagen was determined by quantifying total soluble collagen (Sircol Collagen Assay, Biocolor, Ireland) as previously described.
(§3) Pulmonary Mechanics: Lung mechanics were assessed on mice with a computerized Flexi Vent system (SCIREQ, Montreal, Canada). […] The ventilation mode was changed to forced oscillatory signal (0.5-19.6 Hz), and respiratory impedance was measured. […]
(§4) Statistics: Means (+/−SEM) were calculated and plotted for each variable, by mouse group (CCSP/-Vehicle, CCSP/TGFα Vehicle, CCSP/TGFα PX-866). Data were assessed for normality using plots and the Shapiro-Wilk test. […]

[3] = system: CCSP-rtTA/otet-TGFα transgenic mice; test: Progression of established TGFα-induced pulmonary fibrosis, PX-866 given after 4 weeks of Dox; assay type: in vivo; conditions: 8 weeks of Dox
Excerpt: CCSP-rtTA activator mice expressing the reverse tetracycline-responsive transactivator (rtTA) under control of the 2.3-kb rat Clara Cell Secretory Protein (CCSP), a.k.a. secretoglobin, family 1A, member 1 (Scgblal) gene promoter were mated to conditional doxycycline (Dox) regulated transgenic mice containing the human TGFα cDNA under the control of seven copies of the tetracycline operon ((TetO)7-cmv TGFα) plus a minimal CMV promoter. Single transgenic (CCSP-rtTA+/−) and bitransgenic CCSP-rtTA+/−/(TetO)7-cmv TGFα+/− mice were produced within the same litter by mating homozygous CCSP-rtTA+/+ mice to hemizygous (TetO)?-cmv TGFα+/− mice. All mice were derived from the FVB/NJ inbred strain. Mice were maintained in virus-free containment. All animal protocols were reviewed and approved by the Institutional Animal Use and Care Committee of the Cincinnati Children's Hospital Research Foundation. To induce TGFα expression, Dox (Sigma, St. Louis, Mo.) was administered in the drinking water at a final concentration of 0.5 mg/ml and in food (62.5 mg/kg). Water was replaced three times per week. Mice were genotyped as known in the art.
The PI3K inhibitor PX-866 (ProIX Pharmaceuticals, Tucson, Ariz.) was suspended into 5% EtOH to make a 5 mg/ml stock solution. Three hours prior to administration, food and water were removed from cages. Mice were then anesthetized (Isoflurane; Abbott Labs, Chicago, Ill.), and sterile vehicle or drug (3 mg/kg) was administered by gavage using a 20 gauge feeding catheter (Harvard Apparatus, Holliston, Mass.). Mice were treated with vehicle or PX-866 every other day for up to 4 weeks. Mice were killed with pentobarbital sodium (65 mg/ml) euthanasia solution (Fort Dodge Animal Health, Fort Dodge, Iowa) 1 day or 4 weeks after Dox and vehicle or PX-866 treatment.
as §2, §3, §4
Weights of mice in four different groups were measured at Baseline and at evenly spaced intervals during the next eight weeks, once per week. […] Differences in selected (a priori) Group*Time means were calculated and tested using a simulation-based adjustment for multiple comparisons. […]

[4] = aqueous solutions at 37° C. or 0° C. at neutral pH; cited from earlier work
[5] = PX-866 from 4 weeks after TGFα induction

C=CCN(/C=C1/C(=O)O[C@H](COC)[C@@]2(C)C1=C(O)C(=O)C1=C2[C@H](OC(C)=O)C[C@]2(C)C(=O)CC[C@@H]12)CC=C [PX-866]
TGFα-induced phosphorylation of Akt (P-Akt, Ser 473) [1]: prevented TGFα-induced increases in P-Akt; also recorded: prevented increased phosphorylation of Akt
lung mechanics (airway resistance, airway and tissue elastance, compliance) [2]: did not show any differences in lung mechanics; also recorded: prevented increases in airway resistance, airway and tissue elastance, and decreases in compliance
lung fibrosis by histology [3, 5]: reduced pleural fibrosis as well as reduced perivascular and peribronchial fibrosis; also recorded: reduced fibrosis on lung histology; also recorded: attenuation of fibrosis
lung mechanics (airway resistance, airway and tissue elastance, compliance) [3, 5]: significantly improved compared with vehicle-treated mice; also recorded: improved lung mechanics; also recorded: reduced increases in airway resistance, and airway and tissue elastance, and decreases in compliance
total lung collagen [3, 5]: reduced lung collagen levels; also recorded: unchanged compared with mice taken off Dox after 4 weeks
body weight ([3]; PX-866 from beginning of week 5): prevented further body weight loss; also recorded: normalization of body weights; also recorded: did not have changes in body weight

COC[C@H]1OC(=O)c2coc3c2[C@@]1(C)C1=C(C3=O)[C@@H]2CCC(=O)[C@@]2(C)C[C@H]1OC(C)=O [Wortmannin]
stability in aqueous solution [4]: subject to decomposition by hydrolytic opening of the furan ring
